This test concerns the target T1, human type 1 glycine transporter (GlyT1) (Homo sapiens, UniProt P48067).
T1 construct: T98G cells (glioma cells) expressing human type 1 glycine transporter (GlyT1) were used; endogenous in cells; host or cells: T98G cells (human glioma)
T1 sequence (P48067 1-706): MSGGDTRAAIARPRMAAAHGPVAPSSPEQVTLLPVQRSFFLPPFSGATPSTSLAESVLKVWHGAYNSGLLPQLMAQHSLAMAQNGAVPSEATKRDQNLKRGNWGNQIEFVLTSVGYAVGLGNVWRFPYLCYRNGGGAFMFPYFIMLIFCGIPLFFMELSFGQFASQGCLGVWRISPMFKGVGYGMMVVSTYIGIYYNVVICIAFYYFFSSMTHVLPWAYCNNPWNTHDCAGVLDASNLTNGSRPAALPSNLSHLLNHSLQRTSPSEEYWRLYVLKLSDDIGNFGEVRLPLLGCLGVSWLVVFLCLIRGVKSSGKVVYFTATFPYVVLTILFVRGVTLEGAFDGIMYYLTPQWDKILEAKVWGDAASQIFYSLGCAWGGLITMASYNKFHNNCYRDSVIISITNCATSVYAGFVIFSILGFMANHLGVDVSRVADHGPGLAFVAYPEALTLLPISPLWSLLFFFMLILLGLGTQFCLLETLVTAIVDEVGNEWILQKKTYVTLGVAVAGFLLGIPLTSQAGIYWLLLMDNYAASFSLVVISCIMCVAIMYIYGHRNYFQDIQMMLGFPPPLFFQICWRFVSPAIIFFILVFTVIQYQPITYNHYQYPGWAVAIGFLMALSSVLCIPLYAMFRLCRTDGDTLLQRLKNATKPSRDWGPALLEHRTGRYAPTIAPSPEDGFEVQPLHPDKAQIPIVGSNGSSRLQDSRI
The test is described as follows: Glycine uptake inhibition experiment ([3H] glycine uptake). The format is cell-based. To be noted: T98G cells (glioma cells) expressing human GlyT1; [3H] glycine 250 nM; 10-min pretreatment, 15 minutes at room temperature; read-out: glycine uptake inhibitory activity (IC50 value). The method, then: A glycine uptake experiment was conducted in accordance with the method published in Neuron, 8, 927-935, 1992. In the experiment, T98G cells (glioma cells) expressing human type 1 glycine transporter (GlyT1) were used. The T98G cells were seeded in a 96-well plate at 2.0×10^4 cells/well and cultured overnight in a CO2 incubator. The test substance was dissolved in a 100% DMSO solution and then dissolved in a 10 mM HEPES buffer solution (pH 7.4) containing 150 mM sodium chloride, 1 mM calcium chloride, 5 mM potassium chloride, 1 mM magnesium chloride, 10 mM glucose and 0.2% bovine serum albumin. After removing the cell culture medium, the test substance was subjected to a 10-min pretreatment. Subsequently, the test substance and [^3H] glycine (final concentration: 250 nM) were added to the cells and reaction was performed at room temperature for 15 minutes. After the end of the reaction, the extracellular fluid was aspirated with a manifold to remove excess labeled glycine present outside the cells, and then the cells were lysed with a 0.5 M aqueous sodium hydroxide solution. The glycine content in the cells was determined by measuring the radioactivity in the cell lysate with a liquid scintillation counter. Glycine uptake in the presence of 10 μM ALX^5407 was defined as non-specific uptake, and the value calculated by subtracting the amount of the non-specific uptake from the total uptake in the absence of 10 μM ALX5407 was defined as specific uptake. In addition, glycine uptake inhibitory activity (IC50 value) was calculated from an inhibition curve at the concentrations of each test substance ranging from 10^−9 to 10^−5 M.
It should be noted that ALX^5407 is an HCl salt of N-[(3R)-3-([1,1′-biphenyl]-4-yloxy)-3-(4-fluorophenyl)propyl]-N-methylglycine.
A word on the IC50: it is the concentration needed to halve the response being measured. For `O=C(CN1C(=O)N(c2ccc(C(F)(F)F)nc2)C[C@@H]1CC1CCCCC1)Nc1cccc(C(F)(F)F)c1` [Compound 8], the IC50 is 660 nM. Regarding `CC(C)[C@H]1CN(c2ccc(F)cn2)C(=O)N1CC(=O)Nc1cccc(C(F)(F)F)c1` [Compound 11], the IC50 amounted to 89 nM.

`O=C(CN1C(=O)N(c2ccc(C(F)(F)F)nc2)C[C@@H]1c1ccccc1)Nc1cccc(C(F)(F)F)c1` [Compound 12]: the IC50 came to 71 nM.

As for `CC(C)(C)[C@H]1CN(c2ccc(C(F)(F)F)nc2)C(=O)N1CC(=O)Nc1cccc(C(F)(F)F)c1` [Compound 13], the IC50 stood at 74 nM. For `CC(C)[C@H]1CN(c2ccc(C(F)(F)F)nc2)C(=O)N1CC(=O)Nc1nnc(C(F)(F)F)s1` [Compound 54], the IC50 is 800 nM. In the case of `CC(C)[C@H]1CN(c2ccc(C(F)(F)F)nc2)C(=O)N1CC(=O)Nc1cncc(Cl)c1` [Compound 61], the IC50 was determined as 53 nM. For `CC(C)[C@H]1CN(c2ncc(Cl)cn2)C(=O)N1CC(=O)Nc1cc(C(F)(F)F)ccn1` [Compound 62], the IC50 was determined as 33 nM. As for `COc1cnc(N2C[C@H](C(C)C)N(CC(=O)Nc3cc(C(F)(F)F)ccn3)C2=O)nc1` [Compound 93], the IC50 is 54 nM. The figure for `CC(C)[C@H]1CN(c2ccc(C(F)(F)F)nc2)C(=O)N1CC(=O)Nc1cc(C(C)(C)C)no1` [Compound 103] is 230 nM; for `CCc1cnc(N2C[C@H](C(C)C)N(CC(=O)Nc3ccc(C(F)(F)F)nc3)C2=O)nc1` [Compound 104] it is 240 nM. The figure for `COC(C)(C)[C@H]1CN(c2ccc(C(F)(F)F)nc2)C(=O)N1CC(=O)Nc1cc(C(F)(F)F)ccn1` [Compound 148] is 75 nM; for `O=C(CN1C(=O)N(c2ncc(C(F)(F)F)cc2F)C[C@@H]1CC1CC1)Nc1cc(Cl)ccn1` [Compound 152] it is 43 nM; for `CCc1ccnc(NC(=O)CN2C(=O)N(c3cnc(C(F)(F)F)nc3)C[C@@H]2C(C)C)c1` [Compound 165] it is 150 nM. For `CCOc1ccc(N2C[C@H](C(C)C)N(CC(=O)Nc3cc(Cl)ccn3)C2=O)nc1` [Compound 186], the IC50 amounted to 45 nM. `CC(C)[C@H]1CN(c2ncc(F)cn2)C(=O)N1CC(=O)Nc1cc(Cl)ccn1` [Compound 188]: the IC50 turned out to be 600 nM. On to `CC(C)[C@H]1CN(c2ncc(C3CC3)cn2)C(=O)N1CC(=O)Nc1cc(C(F)(F)F)ccn1` [Compound 193], for which the IC50 was 22 nM.

As to `CCOc1cnc(N2C[C@H]([C@@H](F)CC)N(CC(=O)Nc3cc(C(F)(F)F)ccn3)C2=O)nc1` [Compound 220], the IC50 is 17 nM.

Take `CCOc1cnc(N2C[C@H]([C@@H](C)CC)N(CC(=O)Nc3cc(Cl)ccn3)C2=O)nc1` [Compound 248]: the IC50 is 16 nM. Consider `CC[C@H](C)[C@H]1CN(c2ncc(C3CC3)cn2)C(=O)N1CC(=O)Nc1cc(Cl)ccn1` [Compound 249], for which the half-maximal inhibitory concentration (IC50) was 18 nM.

For the compound `CCOc1cnc(N2C[C@H]([C@@H](C)CC)N(CC(=O)Nc3cc(C4CC4)ccn3)C2=O)nc1` [Compound 250], the IC50 turned out to be 24 nM.
